From patent US12637468B2, “Substituted [1,2,4]triazolo[4,3-b]pyridazines as GABAA receptor modulators” (SHANGHAI SIMR BIOTECHNOLOGY CO., LTD., priority 2019, dated 2026)
In brackets after ≈: the same amount, converted by molar mass. Blank lines part the entries; values can stand above or below the compound they belong to.

Key:
[1] = Thermodynamic solubility in phosphate buffer solution (TS in PBS); type: physicochemical; details: aqueous buffer, thermodynamic from solid, 50 mM phosphate buffer solution pH 7.4, shaken at room temperature for 24 hours
Procedure: 50 mM phosphate buffer solution pH=7.4:0.39 g of NaH2PO4·2H2O, and 1.4025 g of Na2HPO4 were weighted and placed in an erlenmeyer flask, then 240 mL of water was added thereto. The solid was dissolved and mixed thoroughly, and the pH value was adjusted to 7.4 with 10M NaOH solution, and the resulting solution was transferred to a 250 mL volumetric flask, followed by dilution to scale with water.
(§1) Waters e2695 HPLC high performance liquid chromatography, Mettler XSE105 analytical balance.
(§2) Firstly, a 10 mM stock solution was prepared with DMSO, and was diluted with a diluent (ACN: PB buffer 50:50) into 1 μM-200 μM as a standard solution.
Thermodynamic solubility in phosphate buffer solution (TS in PBS). 1 mg of the sample was weighed, and 1.5 mL of 50 mM phosphate buffer solution (pH 7.4) was added thereto, then the mixture was shaken at room temperature for 24 hours to ensure that the sample was saturated, and filtered. The filtrate was detected with the high performance liquid chromatograph (UV). The compounds of the present disclosure and comparative compounds are tested by this method, and the results are shown in Table 3 below: […]

α5-GABAA receptor [2] = target: T1, α5-GABAA receptor (Homo sapiens, UniProt P18507+P31644); experiment: Cell-level screening: whole cell patch clamp, inverse agonist efficacy on α5-GABAA receptor expressed in HEK293; type: cell-based; details: drug 100 nM, GABA 0.05 μM, HEK293 expressing α5, β3 and γ2 subunits, clamped at −60 mV; read-out: Compound inverse agonist efficacy %
T1 construct: expressed in transfected cells; host or cells: HEK293, monoclonal stably transfected line
T1 sequence (P31644 32-462): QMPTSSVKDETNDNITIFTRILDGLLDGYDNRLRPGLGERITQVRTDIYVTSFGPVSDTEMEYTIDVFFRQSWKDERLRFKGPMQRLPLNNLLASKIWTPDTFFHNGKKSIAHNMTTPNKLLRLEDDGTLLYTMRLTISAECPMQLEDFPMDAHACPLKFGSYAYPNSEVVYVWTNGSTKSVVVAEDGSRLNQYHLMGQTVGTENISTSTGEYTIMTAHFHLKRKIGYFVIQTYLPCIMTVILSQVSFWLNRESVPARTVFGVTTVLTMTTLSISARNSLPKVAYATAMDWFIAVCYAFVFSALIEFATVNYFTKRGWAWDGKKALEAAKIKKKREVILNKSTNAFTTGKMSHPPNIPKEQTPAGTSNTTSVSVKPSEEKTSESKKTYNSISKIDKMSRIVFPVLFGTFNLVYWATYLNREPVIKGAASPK
T1 sequence (P28472 26-473 partner): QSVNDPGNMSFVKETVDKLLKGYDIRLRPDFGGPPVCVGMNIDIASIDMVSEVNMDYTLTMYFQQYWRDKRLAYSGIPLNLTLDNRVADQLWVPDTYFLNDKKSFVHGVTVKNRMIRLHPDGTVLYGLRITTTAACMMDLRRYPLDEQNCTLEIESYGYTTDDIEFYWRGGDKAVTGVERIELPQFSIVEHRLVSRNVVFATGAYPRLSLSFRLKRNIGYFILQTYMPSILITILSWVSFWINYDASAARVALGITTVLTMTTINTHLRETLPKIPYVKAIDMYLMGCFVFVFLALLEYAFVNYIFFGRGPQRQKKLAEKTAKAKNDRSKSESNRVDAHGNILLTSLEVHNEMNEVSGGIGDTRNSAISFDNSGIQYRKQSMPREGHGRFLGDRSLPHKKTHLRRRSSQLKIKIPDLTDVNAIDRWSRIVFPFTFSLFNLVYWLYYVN
T1 sequence (P18507 40-467 isoform P18507-1 limits assumed): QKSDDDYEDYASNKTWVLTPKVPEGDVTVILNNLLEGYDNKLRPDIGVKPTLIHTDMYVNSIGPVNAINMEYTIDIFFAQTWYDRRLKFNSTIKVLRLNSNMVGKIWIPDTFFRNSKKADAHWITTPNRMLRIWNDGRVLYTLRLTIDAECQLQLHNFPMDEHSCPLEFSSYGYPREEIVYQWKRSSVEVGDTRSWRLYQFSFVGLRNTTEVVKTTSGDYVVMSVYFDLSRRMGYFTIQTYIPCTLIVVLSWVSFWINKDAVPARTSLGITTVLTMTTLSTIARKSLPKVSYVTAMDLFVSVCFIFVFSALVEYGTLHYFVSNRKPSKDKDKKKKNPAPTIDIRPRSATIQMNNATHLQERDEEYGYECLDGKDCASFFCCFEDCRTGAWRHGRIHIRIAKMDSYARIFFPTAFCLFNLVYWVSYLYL
Method in brief: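 Whole-cell patch clamp at −60 mV on HEK293 stably expressing α5β3γ2, pH 7.4 extracellular/CsCl internal solutions. Current evoked by 0.05 μM GABA, then compound in GABA solution; screening at 100 nM, dose-response 0.3–300 nM. Inverse agonist efficacy as % change of GABA current.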

[3] = Thermodynamic solubility in simulated intestinal fluid (TS in FaSSIF); type: physicochemical; details: thermodynamic from solid, 37° C.
Procedure: Simulated intestinal fluid FaSSIF: 54.76 mg of FaSSIF-V2 (Biorelevant, batch. V2FAS-0619-A, lot. V2FAS01) was weighed and added to 15 mL of a buffer solution. After dissolving, the solution was supplemented to 30 mL, and put at room temperature for 1 hour before use.
as §1, §2
Thermodynamic solubility in intestinal fluid (TS in FaSSIF) was simulated. About 0.3 mg of each sample was weighed and added to 1.5 mL of FaSSIF solution, with two parts in parallel, shaken at 1000 rpm at 37° C. for 4 hours, filtered. 1 mL of an initial filtrate was discarded, and 400 μL of the subsequent filtrate was taken. The filtrate was detected by high performance liquid chromatograph (UV).

[4] = Water solubility observed on extraction work-up; type: physicochemical; details: observed on extraction with ethyl acetate at pH=7
Procedure: Methyl 6-[7-methoxy-3-(5-methyl-isoxazol-3-yl)-[1,2,4]triazolo[4,3-b]pyridazin-6-yloxymethyl]-nicotinate (300 mg, 0.75 mmol), 1M lithium hydroxide (1.5 mL, 1.5 mmol) were sequentially added to 10 mL of ethanol, and the mixture was stirred at room temperature for 1 hour. The mixture was added with 0.5 M hydrochloric acid to neutralize to pH=7, diluted with water, extracted with ethyl acetate. […] LC-MS: m/z [M+H]^+=383.

α5-GABAA receptor [5] = details: in vivo; cited from earlier work
α5-GABAA receptor [6] = details: in vivo; cited from earlier work; remark: listed apart in the source
[7] = Pharmacokinetic experiment on rats: brain entry ratio (brain tissue/plasma concentration ratio); type: in vivo; details: rat, male SD rats, po 10 mg/kg
Procedure: The drug concentration ratio of plasma and brain tissue in the pharmacokinetic experiment on rats was used to evaluate the entry of compounds into brain. All rats fasted overnight before administration; the test compounds were dissolved and administered orally (po) to male SD rats, with 3 rats in each group. After administration of the test compounds, blood was collected by jugular vein puncture at 0.5 hours with about 0.25 mL per sample. The whole brain was taken at the same time. The plasma and brain tissue drug concentration were determined by LC-MS/MS method, and the pharmacokinetic parameters were calculated by Phoenix WinNonlin7.0. The dosage was 10 mg/kg, and the vehicle was 5% CMC-Na aqueous solution.

[8] = Rat liver microsome stability (RLM) experiment; type: in vitro ADME; details: rat liver microsomal stability
Procedure: Effect embodiment 3 Rat liver microsome stability (RLM) experiment
Rat liver microsomes (Xenotech, item No. R1000, lot No. 1310030), 100 mM potassium phosphate buffer solution (pH 7.4), 10 mM magnesium chloride.
Compound preparation: 5 μL of compound DMSO mother liquor (10 mM) was added to 495 μL of methanol to obtain an intermediate solution with a compound concentration of 100 μM. Then 50 μL of the intermediate solution was taken and dissolved in 450 μL of potassium phosphate buffer solution to obtain a test solution with a final concentration of 10 μM.
NADPH regeneration system (concentration of isocitrate dehydrogenase 1 unit/mL).
Liver microsomes (final concentration 0.5 mg protein/mL).
Reaction termination solution: cold acetonitrile containing 100 ng/mL Tolbutamide and 100 ng/mL Labetalol as an internal standard.
• (1) Preparation of buffer solution: • Buffer solution A: 1.0 L of 0.1 M potassium phosphate buffer solution containing 1.0 mM EDTA • Buffer solution B: 1.0 L of 0.1 M dipotassium phosphate buffer solution containing 1.0 mM EDTA • Buffer solution C: 0.1 M potassium phosphate buffer, 1.0 mM EDTA, pH 7.4, titrated with 700 mL of buffer solution B and buffer solution A, monitored by pH meter. • (2) Preparation of reference substance (ketanserin) and concentration of administration solution of the test substance:
[…]: […] 10 mM DMSO reference substance stock solution and test substance stock solution were added to 190 μL of ACN, respectively. 1.5 μM administration solution (containing 0.75 mg/mL liver microsomes): […] administration solution and 18.75 μL of 20 mg/mL liver microsomes were added to 479.75 μL of buffer C on a wet ice. • (3) NADPH was added to buffer solution C to obtain a NADPH stock solution (6 mM). • (4) 30 μL of 1.5 μM administration solution (containing 0.75 mg/mL of liver microsomes) was taken on the wet ice and added to the wells of the test plate at different time points (0-, 5-, 15-, 30-, 45-min), respectively. • (5) Firstly, 135 μL of ACN containing IS was added to the wells of a 0 min test plate, and then 15 μL of the NADPH stock solution (6 mM) was added. • (6) The test plate at other time points and the NADPH stock solution were pre-heated in a 37° C. water bath for 5 minutes. • (7) 15 μL of the NADPH stock solution (6 mM) was taken and added to a pre-incubated test plate, and the reaction was started and timed. • (8) At 5 min, 15 min, 30 min and 45 min, 135 μL of CAN containing IS was added to the corresponding test plate respectively, and the test was completed. • (9) Test plates were shaken with a shaker (IKA, MTS 2/4) for 10 min (600 rpm/min) and then centrifuged for 15 min (Thermo Multifuge×3R, 5594 g). • (10) 50 μL of supernatant from each well was added to a 96-well sample plate containing 50 μL of ultrapure water (Millipore, ZMQS50F01), and the samples were analyzed by LC/MS.

[9] = Pharmacokinetic experiment on rats: maximum plasma drug concentration (Cmax); type: in vivo, rat; details: male SD rats, po, 10 mg/kg, vehicle 5% CMC-Na aqueous solution
Procedure: In the pharmacokinetic experiment on rats, the maximum plasma drug concentration (Cmax) was used to evaluate the absorption of the compounds in rats. All rats fasted overnight before administration; the test compounds were dissolved and administered orally (po) to male SD rats, with 3 rats in each group. After administration of the test compounds, blood was collected by jugular vein puncture at […] with about 0.25 mL per sample. The plasma drug concentration was determined by LC-MS/MS method, and the pharmacokinetic parameters were calculated by Phoenix WinNonlin7.0. The dosage was 10 mg/kg, and the vehicle was 5% CMC-Na aqueous solution.

α5-GABAA receptor [10] = details: cited from earlier work
[11] = Table 4, 0.5 mg protein/mL, NADPH, 37° C., 0-45 min
[12] = Table 5, compounds of the disclosure and comparative compounds

solubility thermodynamic at 24 h [1]: 14.2 µg/mL (≈ 34.7 µM)
Structure (SMILES): CCNC(=O)c1ccc(COc2nn3c(-c4cc(C)on4)nnc3cc2OC)nc1 [drawing 919]

inhibition at 0.1 µM (α5-GABAA receptor [2]): 24.2% | solubility thermodynamic at 4 h [3]: 307 µg/mL (≈ 803 µM) | water solubility [4]: good water solubility
Structure (SMILES): COc1cc2nnc(-c3cc(C)on3)n2nc1OCc1ccc(C(=O)O)cn1 [Embodiment 63, 6-(((7-Methoxy-3-(5-methylisoxazol-3-yl)-[1,2,4]triazolo[4,3-b]pyridazin-6-yl)oxy)methyl)nicotinate]

Structure (SMILES): Cc1cc(-c2nncc3c(C(C)(C)C)c(OCc4ncnn4C)nn23)no1 [MRK-016]
therapeutic effects on the treatment of cognition related diseases in animal models (α5-GABAA receptor [5]): good therapeutic effects | inhibition of (3H)RO-15-1788 binding in the central nervous system (α5-GABAA receptor [6]): effectively inhibit

Kp at 0.5 h ([7]; Table 7): 0.018 | inhibition at 0.1 µM (α5-GABAA receptor [2]): 64.7% | RLM [8, 11]: 5 µL/min/mg
Structure (SMILES): COc1cc2nnc(-c3cc(C)on3)n2nc1OCc1ccc2nc(C#N)cn2n1 [Embodiment 211, 6-(((7-Methoxy-3-(5-methylisoxazol-3-yl)-[1,2,4]triazolo[4,3-b]pyridazin-6-yl)oxy)methyl)imidazo[1,2-b]pyridazine-2-carbonitrile]

solubility thermodynamic at 24 h [1]: 0.8 µg/mL (≈ 1.86 µM)
Structure (SMILES): CCNC(=O)c1ccc(COc2nn3c(-c4cc(C)on4)nnc3c3ccccc23)nc1 [drawing 920]

Structure (SMILES): Cn1ncnc1COc1nn2c(-c3cc(CO)on3)nncc2c1C(C)(C)C [MRK016-M3]
inhibition of (3H)RO-15-1788 binding in the central nervous system (α5-GABAA receptor [6]): hardly inhibit

Kp at 0.5 h ([7]; Table 6): 1.51 | Maximum plasma drug concentration [9]: 25.7 ng/ mL ng/mL
Structure (SMILES): Cc1cc(-c2nnc3c4ccccc4c(OCc4ccccn4)nn23)no1 [drawing 929, reference compound]

solubility thermodynamic at 24 h [1]: 2.6 µg/mL (≈ 7.13 µM)
Structure (SMILES): Cc1cc(-c2nnc3cc(C(C)(C)C)c(OCc4ccccn4)nn23)no1 [drawing 918]

Structure (SMILES): CCOC(=O)c1ncn2c1[C@@H]1CCCN1C(=O)c1cc(OC)ccc1-2 [L-655,708]
suppression of the current (α5-GABAA receptor [10]; GABA 1 μM, highest concentration of L-655,708): 15% | inhibition of the current induced by low concentrations of GABA (α5-GABAA receptor [10]; GABA 5, 50 and 500 nM): dose-dependently inhibited | inhibitory effect on the current induced by GABA (α5-GABAA receptor [10]; GABA concentration increased above 1 μM): no inhibitory effect

Kp at 0.5 h ([7]; Table 6): 0.07 | Maximum plasma drug concentration [9]: 1778 ng/mL
Structure (SMILES): COc1cc2nnc(-c3cc(C)on3)n2nc1OCc1ccccn1 [drawing 928]

solubility thermodynamic at 24 h [1]: 2.5 µg/mL (≈ 5.74 µM)
Structure (SMILES): CCNC(=O)c1ccc(COc2nn3c(-c4cc(C)on4)nnc3cc2C(C)(C)C)nc1 [drawing 921]

solubility thermodynamic at 24 h [1]: 20.1 µg/mL (≈ 59.4 µM)
Structure (SMILES): COc1cc2nnc(-c3cc(C)on3)n2nc1OCc1ccccn1 [drawing 916]

RLM [8, 12]: 33.6 µL/min/mg
Structure (SMILES): Cc1cc(-c2nnc3cc(C(C)(C)C)c(OCc4ccccn4)nn23)no1 [drawing 924, reference compound]

Structure (SMILES): Cc1cc(-c2nnc3c4ccccc4c(OCc4cn(C)nn4)nn23)no1 [α5IA]
therapeutic effects on the treatment of cognition related diseases in animal models (α5-GABAA receptor [5]): good therapeutic effects

solubility thermodynamic at 24 h [1]: 0.3 µg/mL (≈ 0.837 µM)
Structure (SMILES): Cc1cc(-c2nnc3c4ccccc4c(OCc4ccccn4)nn23)no1 [drawing 917]

RLM [8, 12]: 11.4 µL/min/mg
Structure (SMILES): CCNC(=O)c1ccc(COc2nn3c(-c4cc(C)on4)nnc3cc2OC)nc1 [drawing 925]

Kp at 0.5 h ([7]; Table 7): 0.0183 | inhibition at 0.1 µM (α5-GABAA receptor [2]): 55.8% | RLM [8, 11]: 5 µL/min/mg
Structure (SMILES): COc1cc2nnc(-c3cc(C)on3)n2nc1OCc1ccc2c(n1)CCN(C1CCOC1)C2 (stereo not shown) [Embodiment 183]

RLM [8, 12]: 142.6 µL/min/mg
Structure (SMILES): CCNC(=O)c1ccc(COc2nn3c(-c4cc(C)on4)nnc3cc2C(C)(C)C)nc1 [drawing 927, reference compound]

Kp at 0.5 h ([7]; Table 6): 0.651 | Maximum plasma drug concentration [9]: 216 ng/mL
Structure (SMILES): Cc1cc(-c2nnc3cc(C(C)(C)C)c(OCc4ccccn4)nn23)no1 [drawing 930, reference compound]
